# Assay results from patent publication US20200345010A1, “FUNGICIDAL OXADIAZOLES” (FMC Corporation, priority 2019, published 2020).
# Marks after values point to notes of the source that are not given here.
# Key:
# Assay type in all cases: in vivo
# Phakopsora pachyrhizi = test: Test A: Asian soybean rust control on soybean seedlings; conditions: soybean seedlings sprayed the day before inoculation, 100 = 100% disease control, 0 = none
# From the text: (§1) General protocol for preparing test suspensions for Tests A-C: the test compounds were first dissolved in acetone in an amount equal to 3% of the final volume and then suspended at the desired concentration (in ppm) in acetone and purified water (50/50 mix by volume) containing 250 ppm of the surfactant PEG400 (polyhydric alcohol esters). The resulting test suspensions were then used in Tests A-C.
# The test solution was sprayed to the point of run-off on soybean seedlings. The following day the seedlings were inoculated with a spore suspension of Phakopsora pachyrhizi (the causal agent of Asian soybean rust) and incubated in a saturated atmosphere at 22° C. for 24 h, and then moved to a growth chamber at 22° C. for 8 days, after which time visual disease ratings were made.
# (§2) A rating of 100 indicates 100% disease control and a rating of 0 indicates no disease control (relative to the controls). A dash (-) indicates the compound was not tested.
# Zymoseptoria tritici = test: Test B: wheat leaf blotch control on wheat seedlings; conditions: 250 ppm test suspension (asterisk); wheat seedlings sprayed the day before inoculation; 100 = 100% disease control, 0 = none
# From the text: as §1
# (§3) The test solution was sprayed to the point of run-off on wheat seedlings. The following day the seedlings were inoculated with a spore suspension of Zymoseptoria tritici (the causal agent of wheat leaf blotch) and incubated in a saturated atmosphere at 24° C. for 48 h, and then moved to a growth chamber at 20° C. for 17 days, after which time disease ratings were made.
# as §2
# [1] = tested on: Puccinia recondita f. sp. tritici; test: Test C: wheat leaf rust control on wheat seedlings; conditions: wheat seedlings sprayed the day before inoculation, 100 = 100% disease control, 0 = none
# From the text: as §1
# as §3, with “Puccinia recondita f. sp.” for “Zymoseptoria”, “rust)” for “blotch)”, “20°” for “24°”, “24” for “48”, “7” for “17”
# as §2
# [2] = 250 ppm test suspension (asterisk)
SMILES,Test A disease control rating (Phakopsora pachyrhizi; 50 ppm test suspension) [%],Test B disease control rating (Zymoseptoria tritici),Test C disease control rating ([1]; 50 ppm test suspension),Test A disease control rating (Phakopsora pachyrhizi; 10 ppm test suspension) [%],"Test C disease control rating [1, 2]",Test C disease control rating ([1]; 10 ppm test suspension) [%]
"CS(=O)(Cc1ccccc1)=NCc1ccc(-c2noc(C(F)(F)F)n2)cc1 (centres unmarked) [Compound 2, N-[methyloxido(phenylmethyl)-λ^4-sulfanylidene]-4-[5-(trifluoromethyl)-1,2,4-oxadiazol-3-yl]benzenemethanamine]",100,93* %,100%,,,
O=S(=NCc1ccc(-c2noc(C(F)(F)F)n2)cc1)(c1ccccc1)C1CC1 (centres unmarked) [Compound 12],,53* %,,97,99* %,
CS(=O)(=Nc1ccc(-c2noc(C(F)(F)F)n2)cc1)c1cccs1 (centres unmarked) [Compound 13],,91* %,,100,,45
O=S(CCl)(=NCc1ccc(-c2noc(C(F)(F)F)n2)cc1)c1ccccc1 (centres unmarked) [Compound 15],,28* %,,97,99* %,
O=S1(=Nc2ccc(-c3noc(C(F)(F)F)n3)cc2)CCCC1 [Compound 16],,89* %,,77,,0
CS(=O)(=NCc1ccc(-c2noc(C(F)(F)F)n2)cc1)c1ccccc1 (centres unmarked) [Compound 21],100,70* %,,,100* %,
CS(=O)(=NCc1ccc(-c2noc(C(F)(F)F)n2)cc1)c1cccs1 (centres unmarked) [Compound 27],,98* %,,100,100* %,
CS(=O)(=NCc1ccc(-c2noc(C(F)(F)F)n2)cc1)c1ccsc1 (centres unmarked) [Compound 28],,79* %,,100,100* %,
CS(=O)(=NCc1ccc(-c2noc(C(F)(F)F)n2)cc1)c1ccc2ccccc2c1 (centres unmarked) [Compound 29],,3* %,,97,99* %,
CCCS(=O)(=NCc1ccc(-c2noc(C(F)(F)F)n2)cc1)c1c(F)c(F)c(F)c(F)c1F (centres unmarked) [Compound 37],100,15* %,89%,,,
CS(=O)(=Nc1ccc(-c2noc(C(F)(F)F)n2)cc1)c1ccccc1 (centres unmarked) [Compound 39],,65* %,,99,,100
Cc1cc(C)c(S(C)(=O)=NCc2ccc(-c3noc(C(F)(F)F)n3)cc2)c(C)c1 (centres unmarked) [Compound 40],,36* %,,91,,0
CS(=O)(=NCc1ccc(-c2noc(C(F)(F)F)n2)cc1)c1ccccc1C#N (centres unmarked) [Compound 44],,0* %,,98,,100
CS(=O)(=NCc1ccc(-c2noc(C(F)(F)F)n2)cc1)c1cccc(C#N)c1 (centres unmarked) [Compound 45],,0* %,,100,,100
COc1ccc(S(C)(=O)=NCc2ccc(-c3noc(C(F)(F)F)n3)cc2)cc1 (centres unmarked) [Compound 47],,,,99,,32
"COCCS(=O)(=NCc1ccc(-c2noc(C(F)(F)F)n2)cc1)c1ccccc1 (centres unmarked) [Compound 48, N-[(2-methoxyethyl)oxidophenyl-λ^4-sulfanylidene]-4-[5-(trifluoromethyl)-1,2,4-oxadiazol-3-yl]benzenemethanamine]",,,,98,,45
COC(=O)c1ccc(S(C)(=O)=NCc2ccc(-c3noc(C(F)(F)F)n3)cc2)cc1 (centres unmarked) [Compound 49],,,,0,,0
CS(C)(=O)=NCc1ccc(-c2noc(C(F)(F)F)n2)cc1 [Compound 50],,,100** %,99,,
